The nature of this data set: pH of the mixtures. Format: physicochemical. Conditions: mixture at the stated moles of POAA, AA and AO-8. As for the experimental part: Octyldimethylamine oxide was added to a peracid composition containing 15% peroxyacetic acid, 10% hydrogen peroxide, and about 40-45% acetic acid. The octyldimethylamine oxide was added at different levels, corresponding to differing molar ratios of peroxyacetic acid (POAA) to acetic acid (AA) to octyldimethylamine oxide (AO-8). The mixture was then compared for remaining odor. […] It was surprising that this reduction occurred even at pH too low for ion pair formation between the AO-8 and POAA, i.e. substantially below the 8.2 pKa of POAA.

Take `CCCCCCCC[N+](C)(C)[O-]` [AO-8, octyldimethylamine oxide]: the “mixture results: pH” value was found to be 7.7.

For the origin of these results see patent publication US7816555B2, “Peroxycarboxylic acid compositions with reduced odor” (Ecolab Inc., priority 2003, dated 2010).
